# Laboratory results taken from patent US20120258944A1, “ANTIOXIDANTS FOR USE IN THERAPY” (priority 2009, published 2012).
# Assays:
# [1] = system: MG-63, HEK-293, SHSY-5y, MRC-5 and CaCo-2-cells; assay: Alamar Blue cell viability/proliferation assay; assay type: cell-based, human
# Description: Alamar Blue is a non-toxic metabolic indicator for viable cells. Following uptake, the dye becomes reduced and causes a change in the colour of the cell. The colour change correlates reasonably well with the number of living cells in the sample.
# Cells w/o antioxidant were used as controls.
# Alamar Blue is a non-toxic metabolic indicator for viable cells. Upon uptake into the cell the dye becomes reduced and changes colour. The colour change correlates approximately with the number of living cells in the sample.
# kidney slice = assay: Organ model TBARS experiment (TBA-MDA assay) in kidney slices
# [2] = ABTS radical cation assay (TEAC) in aqueous PBS buffer; conditions: 6.08 micro-M
# Procedure: In order to investigate its aqueous phase performance, we thought that it would be interesting to determine its Trolox Equivalent Antioxidant Capacity (TEAC) (Free Rad. Biol. Med. 1999, 26, 1231-1237) which has been used to quantify the antioxidant activity of biological fluids, extracts and pure compounds. The TEAC value is defined as the concentration of Trolox which has an equivalent antioxidant potential as a 1 mM solution of the compound under investigation (Free Rad. Biol. Med. 1996, 20, 933-956).
# A 2,2′-azinobis(3-ethylbenzothiazoline-6 sulphonic acid radical cation (ABTS•+) assay was used to determine relative TEAC values. To a preformed solution of ABTS•+ in PBS buffer, pH 7.4, with an absorbance slightly above 0.7 were added various amounts (3-30 microM) of organoselenium compound 1, Trolox, sodium ascorbate and N-acetylcysteine. The absorbance at 734 inn was recorded immediately after mixing and then every minute for the next 8 minutes.
# Antioxidant activity as determined by the capacity of the antioxidant to decolorize the ABTS^+ radical cation was determined essentially as described in the literature (Acc. Chem. Res. 1986, 19, 194-201). […] In a typical experiment, the antioxidant (1.52 micro-L of a 3.00 mM solution in MeOH or water; final concentration=6.08 micro-M) was syringed into 0.750 mL of the ABTS^+ radical cation solution. After initial mixing, the absorbance was recorded every minute for the next eight minutes.
# [3] = system: human umbilical vein endothelial cells (HUVEC); assay: Visual evaluation of HUVECs under the microscope (dislodging from the surface); conditions: human, 24 h
# Procedure: Cells were harvested and resuspended in supplemented medium 200 without phenol red. 50 000 cells were added in duplicates to 96-well plates. The compounds were tested on HUVECs according to the following concentrations.
# The compounds were diluted in Medium 200 from the 0.1M stock solution. The toxic effects of the compounds were tested after 24 hrs, 48 hrs and 72 hrs.
# By visually looking at the cells under the microscope and estimating the dislodging from the surface, the state of the cells was evaluated.
# [4] = system: human Neutrophils and human PBMCs; assay: Intracellular ROS, luminol luminescence with SOD and catalase, PMA or fMLF stimulated cells; assay type: cell-based; conditions: PMA or fMLF 30 ng/ml; compounds 120, 60, 30 microM; FIG. 5-8
# Procedure: Validation was performed by stimulating cells with PMA and fMLF. When treated with the antioxidants, altered level of ROS production from the cells was measured using luminometry. Both intracellular and extracellular effect on ROS on the cells was analyzed using isoluminol (extracellular) and luminol (intracellular when co-administered with SOD and catalase) (Dahlgren et al. “Respiratory burst in human neutrophils”, Journal of Immunological Methods 232 1999; 3-14).
# The luminol reagent buffer is made of HBSS buffer (with Ca^2+), luminol and SOD/Catalase.
# 1) Add 25 microL of antioxidants to assay plate to get proper concentrations in a total reaction volume of 100 micro-L. 2) Add 25 microL of PMA (120 ng/ml) and fMLF (120 ng/ml) to assay plate to get concentration of 30 ng/ml in a total reaction volume of 100 microL. 3) Add 50 microL of cell suspension (2 million cells/ml) to each well. Immediately after addition of cell suspension initiate luminescence measurement; the reaction starts at once when the cells are added to the assay plate. Measurement points are taken at 1-minute intervals for 25 minutes. Data is presented as AUC (Area Under Curve) by a summary of all collected measurements for each well.
# FIG. 5: Intracellular ROS analyzed by Luminol (intracellular ROS) induced luminescence in human Neutrophils. ROS induced with PMA (30 ng/ml) with 200, 100 or 0 microM NAC. Concentrations of compounds 120, 60, 30 and 0 microM final concentrations.
# FIG. 6: Intracellular ROS analyzed by Luminol (intracellular ROS) induced luminescence in human Neutrophils. ROS induced with fMLF (30 ng/ml) with 200, 100 or 0 microM NAC. Concentrations of compounds 120, 60, 30 and 0 microM final concentrations.
# FIG. 7: Intracellular ROS analyzed by Luminol (intracellular ROS) induced luminescence in human PBMCs. ROS induced with PMA (30 ng/ml) with 200, 100 or 0 microM NAC. Concentrations of compounds 120, 60, 30 and 0 microM final concentrations.
# FIG. 8: Intracellular ROS analyzed by Luminol (intracellular ROS) induced luminescence in human PBMCs. […]
# [5] = system: human umbilical vein endothelial cells (HUVEC); assay: XTT in vitro toxicology test in human umbilical vein endothelial cells; assay type: cell-based; conditions: human
# Procedure: As a negative control, cells incubated with medium containing 0.5% DMSO (corresponding to the highest DMSO concentration above) was used. As a positive control, cells were incubated in the presence of 20% EtOH.
# After the incubation with the compounds, the wells were washed with PBS to remove substances which could interfere with the assay. 40 μl of fresh medium 200 without phenol red was added together with 10 μl XTT substance (according to the manufacturer's instructions). The plates were incubated for 8 hrs and the colour development was monitored by measuring the absorbance at 450 nm.
# After incubation, the number of viable cells was assessed by observing the amount of metabolized XTT (2,3-bis[2-methoxy-4-nitro-5-sulphophenyl]-2H-tetrazolium-5-carboxyanilide inner salt).
smiles,measurement,setting,value
CC1Cc2cc(O)ccc2[Se]1 (stereo not drawn) [Compound 1],cell growth (Alamar Blue),[1],normal cell growth patterns
same,concentration until which no sign of cell death or decreased proliferation,[1]; human,235 micro-M
same,potency as inhibitor of TBARS production compared with references,kidney slice,more potent inhibitors of TBARS production than Trolox and N-acetylcysteine
same,concentration able to inhibit 50% of the TBARS formation in the control incubation,kidney slice; re-oxygenation after Argon,sub-micromolar
same,TEAC value,"[2]; PBS buffer pH 7.4, after 5 min",1.6
same,number of ABTS radicals quenched by each molecule of the antioxidant,"[2]; PBS buffer pH 7.4, versus reference antioxidants",clearly outperformed both sodium ascorbate and Trolox
same,concentration at which cells were affected (visual),[3],500 µM
same,antioxidative effect on intracellular ROS,[4],strong antioxidative effect
same,relative toxicity among the compounds,[5],far less toxic than compounds 2 and 3
same,toxic concentration,[5]; 24 h,500 µM
same,toxic concentration,[5]; 48 h,500 µM
same,toxic concentration,[5]; 72 h,200 µM
